In paper PMC12234328, “A naphthalimide derivative exerts potent antiplatelet and antithrombotic activities without a bleeding tendency” (Frontiers in Pharmacology, 2025):

Experiments:
[1] = test system: collagen-triggered ATP release in human platelets; assay: ATP release in human platelet suspensions (luciferase/luciferin); type: cell-based; details: 2.5 and 5 μM, collagen 1 μg/mL, n = 4
Procedure: (§1) Adenosine triphosphate (ATP) release and calcium mobilization were assessed as previously described ([Shih et al., 2021]). Luciferase–luciferin and Fura-2 AM were used to detect ATP release and calcium mobilization, respectively. The intensity of luminescence (indicating ATP release) and the fluorescence ratio (340 nm/380 nm) for calcium mobilization were measured using a Hitachi Spectrometer F-7000 (Tokyo, Japan) following the manufacturer’s instructions.
(§2) FIGURE 8 Effects of compound 6 on ATP release, calcium mobilization, and GPIIb–IIIa activation triggered by collagen in human platelets. Washed platelets (3.6 × 10^8 cells/mL) were treated with compound 6 (C6, 2.5 and 5 μM) or DMSO and then stimulated with collagen (1 μg/mL) to trigger ATP release (A), calcium mobilization (B), and GPIIb–IIIa activation (C) that were detected using luciferase/luciferin, Fura-2 AM, and APC–PAC1 antibodies, respectively. Data (A–C) are presented as means ± SEM (n = 4). **p < 0.01 and ***p < 0.001 compared with the resting group. #p < 0.05, ##p < 0.01, and ###p < 0.001 compared with the DMSO (solvent control) group.

[2] = test system: GPIIb–IIIa activation in human platelets; assay: GPIIb-IIIa activation by flow cytometry (APC-PAC-1); type: cell-based; details: 2.5 and 5 μM, collagen 1 μg/mL, n = 4
Procedure: Flow cytometry was performed as previously described ([Lien et al., 2017]). After 20 min of collagen stimulation, the human platelets were fixed and labeled with APC-conjugated PAC-1 antibodies for 30 min to detect the level of GPIIb–IIIa activation. After centrifugation and washing, the platelets were suspended in 1 mL of phosphate-buffered saline and analyzed using a CytoFLEX flow cytometer (Beckman Coulter Life Sciences, Indianapolis, IN, United States). In the flow cytometry setup, platelets were gated using forward scatter and side scatter, and the number of events was set to stop at 10,000 counts. All experiments were performed at least three times to ensure reliable results.
as §2

[3] = test system: collagen-triggered calcium mobilization in human platelets; assay: Calcium mobilization in human platelet suspensions (Fura-2 AM); type: cell-based; details: 2.5 and 5 μM, collagen 1 μg/mL, n = 4
Procedure: as §1, §2

[4] = test system: GPVI signaling (Lyn, Fyn, PLCγ2, PKC substrate p47, Akt, MAPKs); assay: Western blotting of GPVI signaling in collagen-stimulated platelets; type: cell-based, human; details: collagen 1 μg/mL
Procedure: Western blotting was performed as described previously ([Lien et al., 2017]). Human platelet suspensions (3.6 × 10^8 cells/mL) were pretreated with compound 6 (2.5 and 5 μM) or 0.1% DMSO for 3 min and then treated with collagen for 6 min. After centrifugation, the platelet pellets were immediately resuspended in lysis buffer (200 μL) for 1 h. The supernatants were collected after centrifugation at 5,000 g for 5 min, and the protein extracts (80 μg) were subjected to 8%–12% sodium dodecylsulfate–polyacrylamide gel electrophoresis. The separated proteins were then electrotransferred onto a polyvinylidene fluoride membrane through a semidry transfer (Thermo Fisher, Waltham, MA, United States). The membrane was blocked with TBST (10 mM Tris-base, 100 mM NaCl, and 0.01% Tween-20) containing 5% B.S.A. for 1 h. After being washed three times, the membrane was incubated with various specific primary antibodies (1:1,000). Subsequently, the membrane was incubated with HRP-conjugated antibodies (1:5,000) for 1 h. Immunoreactive bands were developed using an electrochemiluminescence kit and analyzed using Celvin S (Biostep, Burkhardtsdorf, Germany).
FIGURE 5 Effects of compound 6 on the phosphorylation of Fyn, Lyn, PLCγ2, and PKC substrates (p47) induced by collagen in human platelets. (A–D) Washed platelets (3.6 × 10^8 cells/mL) were treated with compound 6 (2.5 and 5 μM) or DMSO before adding collagen (1 μg/mL). Proteins of these samples were separated by Western blotting. These targets (Fyn, Lyn, PLCγ2, and p47) were detected using specific antibodies. Data (A–D) are presented as means ± SEM (n = 5). **p < 0.01 and ***p < 0.001 compared with the resting group. #p < 0.05, ##p < 0.01, and ###p < 0.001 compared with the DMSO (solvent control) group.
FIGURE 6 Effects of compound 6 on the phosphorylation of Akt, and MAPKs induced by collagen in human platelets. Washed platelets (3.6 × 10^8 cells/mL) were treated with compound 6 (2.5 and 5 μM) or DMSO before adding collagen (1 μg/mL). […] Akt (A), p38 MAPK (B), ERK (C), and JNK (D) were detected using specific antibodies. […]

Which results are given for `CCCCN1C(=O)c2cccc3c(NCCNC(=O)C45CC6CC(CC(C6)C4)C5)ccc(c23)C1=O` [compound 6]?
Collagen-triggered ATP release [1]: markedly reduced; GPIIb–IIIa activation [2]: significantly reduce; Calcium mobilization [3]: significantly reduce; Collagen-induced phosphorylation of Akt and MAPKs (ERK, p38 MAPK, JNK) ([4]; 5 μM, n = 4): could be diminished; Collagen-induced Lyn and Fyn phosphorylation ([4]; 2.5 and 5 μM, n = 5): could be reversed; Collagen-induced phosphorylation of PLCγ2 and the substrate of PKC (p47 proteins) ([4]; 2.5 and 5 μM, n = 5): significantly reduced
